Patent US10081630B2, “Radioactive halogen-labeled pyrido [1,2-A] benzimidazole derivative compound” (KYOTO UNIVERSITY, priority 2015, dated 2018)

Tests used:
[1] = tested on: tau accumulated in the brain with AD; assay: In vitro autoradiography using autopsied brain tissue of Alzheimer's disease patient; assay type: binding, human
Experimental: (Evaluation 1) In Vitro Autoradiography Using Autopsied Brain Tissue of Alzheimer's Disease Patient (1) In Vitro Autoradiography
Autopsied brain tissue sections of an Alzheimer's disease (AD) patient (sections from a frontal lobe site and a temporal lobe site, 6 μm) were used, which were provided from Graduate School of Medicine, Kyoto University and National Cerebral and Cardiovascular Center Hospital. Deparaffinization treatment was performed by washing with xylene (15 min×2), ethanol (1 min×2), a 90 vol % aqueous ethanol solution (1 min×1), an 80 vol % aqueous ethanol solution (1 min×1), a 70 vol % aqueous ethanol solution (1 min×1), and purified water (2.5 min×2). A 10 vol % aqueous ethanol solution of each radioactive iodine-labeled BIP derivative compound (370 kBq/mL) obtained by the method shown in Example 7 was added thereto, and the tissue sections were incubated at room temperature for 2 hours. The tissue sections were washed with a 50 vol % aqueous ethanol solution (1 hr×1), then exposed to an imaging plate (BAS-SR2025 manufactured by Fujifilm Corp.), and analyzed using a bioimaging analyzer (bioimaging analyzer BAS-5000 manufactured by Fujifilm Corp.). Multi Gauge manufactured by Fujifilm Corp. was used in quantitative analysis.
FIGS. 5E and 5F show the results obtained using [^125I]BIP-NMe2. FIGS. 5G and 5H show the results obtained using [^125I]BIP-OMe. FIGS. 5I and 5J show the results obtained using [^125I]BIP-Me. FIGS. 5E, 5G, and 5I show the results obtained using the brain tissue section of the frontal lobe. FIGS. 5F, 5H, and 5J show the results obtained using the brain tissue section of the temporal lobe.
Tau and Aβ were immunostained using sections adjacent to the autopsied AD brain tissue sections used in autoradiography. An anti-phosphorylated tau monoclonal antibody (AT8, manufactured by Thermo Fisher Scientific Inc.) was used as a primary antibody in the immunostaining of tau, and an anti-Aβ1-42 monoclonal antibody (BC05, manufactured by Wako Pure Chemical Industries, Ltd.) was used as a primary antibody in the immunostaining of Aβ. Deparaffinization treatment was performed by washing with xylene (15 min×2), ethanol (1 min×2), a 90 vol % aqueous ethanol solution (1 min×1), an 80 vol % aqueous ethanol solution (1 min×1), a 70 vol % aqueous ethanol solution (1 min×1), and purified water (2.5 min×2). The antigens were retrieved by autoclaving (15 min) in a 0.01 mol/L citrate buffer solution (pH 6.0) and formic acid treatment (5 min). The tissue sections were washed with running water (5 min) and then washed with PBS-Tween 20 (2 min×1). The tissue sections were reacted with primary antibody solutions at room temperature for 1 hour and then washed with PBS-Tween 20 (5 min×3). The tissue sections were reacted with Histofine Simple Stain MAX-PO (MULTI) (manufactured by Nichirei Biosciences Inc.) at room temperature for 30 minutes and then washed with PBS-Tween 20 (3 min×3) and TBS (5 min×1). Finally, the tissue sections were reacted with a DAB solution at room temperature for 1 minute. The tissue sections were washed with distilled water (1 min×1) to terminate the reaction. The brain tissue sections were mounted on slides and then observed under a microscope (BZ-9000 manufactured by Keyence Corporation).
FIGS. 5A and 5B show the results obtained using the brain tissue section of the frontal lobe. FIGS. 5C and 5D show the results obtained using the brain tissue section of the temporal lobe. FIGS. 5A and 5C show the results of immunostaining with the antibody against tau. FIGS. 5B and 5D show the results of immunostaining with the antibody against Aβ.

[2] = Evaluation of in vivo radioactivity distribution in normal mouse; conditions: normal ddY male mice, tail vein; for radioactivity distribution, Blood / radioactivity distribution, Brain / radioactivity distribution, Heart / radioactivity distribution, Intestine / radioactivity distribution, Kidney / radioactivity distribution, Liver / radioactivity distribution, Lung / radioactivity distribution, Pancreas / radioactivity distribution, Spleen / radioactivity distribution, Stomach / radioactivity distribution, Thyroid gland: mean (SD)
Experimental: (Evaluation 2) Evaluation of In Vivo Radioactivity Distribution in Normal Mouse
Each compound of [^125I]BIP-NMe2, [^125I]BIP-OMe, and [^125I]BIP-Me synthesized according to the method shown in Example 7 was diluted with saline containing 10 vol % ethanol and 0.1 vol % Tween 80. Each radioactive iodine-labeled BIP derivative compound was administered to a group of 5-week-old ddY male mice (26 to 28 g; each group involved 5 mice) from the tail veins thereof at 19.6 to 29.4 kBq (100 μL) per mouse. After 2, 10, 30, or 60 minutes, the mice were slaughtered. After blood collection, the organs were taken out, and their weights and radioactivity were measured.
In Tables 2 to 4, the numerical values shown in the column “Time after administration” are means of % ID for the stomach and the thyroid gland and means of % ID/g for the other tissues with standard deviation (SD) shown in parenthesis.

COc1ccn2c(c1)nc1cc([125I])ccc12 [[^125I]BIP-OMe, 7-[^125I]iodo-3-methoxypyrido[1,2-a]benzimidazole]
radioactivity accumulation in the brain tissue section of the frontal lobe ([1]; AD patient autopsied brain section, frontal lobe, 370 kBq/mL, 2 hours room temperature): none | radioactivity accumulation in the brain tissue section of the temporal lobe ([1]; AD patient autopsied brain section, temporal lobe, 370 kBq/mL, 2 hours room temperature): exhibited radioactivity accumulation in only the brain tissue section of the temporal lobe | nonspecific binding to the brain white matter ([1]; AD patient autopsied brain sections): low | visualization of tau (autoradiography compared with tau and Aβ immunostaining) ([1]; AD patient temporal lobe section, adjacent sections immunostained (AT8, BC05)): clearly visualizes tau accumulated in the brain with AD | clearance from the brain [2]: rapid clearance from the brain | transfer to the brain early after administration [2]: high transfer to the brain | radioactivity distribution, Blood ([2]; 2 min after administration): 5.41(0.40) % ID/g | radioactivity distribution, Brain ([2]; 2 min after administration): 4.30(0.41) % ID/g | radioactivity distribution, Heart ([2]; 2 min after administration): 5.17(0.27) % ID/g | radioactivity distribution, Intestine ([2]; 2 min after administration): 2.94(0.15) % ID/g | radioactivity distribution, Kidney ([2]; 2 min after administration): 8.66(0.73) % ID/g | radioactivity distribution, Liver ([2]; 2 min after administration): 17.8(3.98) % ID/g | radioactivity distribution, Lung ([2]; 2 min after administration): 6.09(0.34) % ID/g | radioactivity distribution, Pancreas ([2]; 2 min after administration): 4.38(0.30) % ID/g | radioactivity distribution, Spleen ([2]; 2 min after administration): 3.60(1.10) % ID/g | radioactivity distribution, Stomach ([2]; 2 min after administration): 2.30(0.33) % ID | radioactivity distribution, Thyroid gland ([2]; 2 min after administration): 0.10(0.05) % ID | radioactivity distribution, Blood ([2]; 10 min after administration): 3.39(0.12) % ID/g | radioactivity distribution, Brain ([2]; 10 min after administration): 0.71(0.14) % ID/g | radioactivity distribution, Heart ([2]; 10 min after administration): 1.94(0.18) % ID/g | radioactivity distribution, Intestine ([2]; 10 min after administration): 8.99(1.43) % ID/g | radioactivity distribution, Kidney ([2]; 10 min after administration): 7.38(1.46) % ID/g | radioactivity distribution, Liver ([2]; 10 min after administration): 16.2(1.80) % ID/g | radioactivity distribution, Lung ([2]; 10 min after administration): 3.33(0.24) % ID/g | radioactivity distribution, Pancreas ([2]; 10 min after administration): 1.59(0.18) % ID/g | radioactivity distribution, Spleen ([2]; 10 min after administration): 3.16(0.18) % ID/g | radioactivity distribution, Stomach ([2]; 10 min after administration): 5.47(0.88) % ID | radioactivity distribution, Thyroid gland ([2]; 10 min after administration): 0.04(0.02) % ID | radioactivity distribution, Blood ([2]; 30 min after administration): 2.24(0.27) % ID/g | radioactivity distribution, Brain ([2]; 30 min after administration): 0.17(0.02) % ID/g | radioactivity distribution, Heart ([2]; 30 min after administration): 0.99(0.08) % ID/g | radioactivity distribution, Intestine ([2]; 30 min after administration): 16.8(4.30) % ID/g | radioactivity distribution, Kidney ([2]; 30 min after administration): 5.74(2.30) % ID/g | radioactivity distribution, Liver ([2]; 30 min after administration): 7.25(1.28) % ID/g | radioactivity distribution, Lung ([2]; 30 min after administration): 1.76(0.11) % ID/g | radioactivity distribution, Pancreas ([2]; 30 min after administration): 0.86(0.22) % ID/g | radioactivity distribution, Spleen ([2]; 30 min after administration): 1.07(0.08) % ID/g | radioactivity distribution, Stomach ([2]; 30 min after administration): 6.62(1.28) % ID | radioactivity distribution, Thyroid gland ([2]; 30 min after administration): 0.01(0.00) % ID | radioactivity distribution, Blood ([2]; 60 min after administration): 1.27(0.15) % ID/g | radioactivity distribution, Brain ([2]; 60 min after administration): 0.08(0.03) % ID/g | radioactivity distribution, Heart ([2]; 60 min after administration): 0.52(0.08) % ID/g | radioactivity distribution, Intestine ([2]; 60 min after administration): 20.1(4.03) % ID/g | radioactivity distribution, Kidney ([2]; 60 min after administration): 2.20(1.20) % ID/g | radioactivity distribution, Liver ([2]; 60 min after administration): 4.61(0.35) % ID/g | radioactivity distribution, Lung ([2]; 60 min after administration): 1.21(0.30) % ID/g | radioactivity distribution, Pancreas ([2]; 60 min after administration): 0.53(0.13) % ID/g | radioactivity distribution, Spleen ([2]; 60 min after administration): 0.63(0.10) % ID/g | radioactivity distribution, Stomach ([2]; 60 min after administration): 5.34(1.23) % ID | radioactivity distribution, Thyroid gland ([2]; 60 min after administration): 0.01(0.00) % ID
